Measured values: patent US20240150356A1, “Pyrimidine amide compounds and use thereof” (ALPHALA CO., LTD., priority 2019, published 2024)
Like-named read-outs stand apart in the source and are kept apart here.

Tests used:
Assay type in all cases: cell-based
[1] = system: Hep3B cells (hepatocellular carcinoma cell line); assay: In vitro MTS cell viability assay (NCI-60 methodology), Hep3B; conditions: Homo sapiens, 48 h, 2 days drug incubation, 50% reduction vs time zero, read-out: Hep3B LC50
Summary of the method: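 Following NCI-60 method, MTS viability of Hep3B measured 24 h after plating (time zero) and after a further 2-day exposure to five concentrations (2-fold series). LC50 defined where [(Ti−Tz)/Tz]×100 = −50.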

[2] = system: NCI-H460 (human lung cancer cell line); assay: In vitro MTS cell viability assay (NCI-60 methodology), NCI-H460; conditions: NCI-H460 cells, read-out: NCI-H460 LC50
Experimental: (§1) The cell viability measurement is based on the NCI-60 screening methodology (Nat. Rev. Cancer 6, 813-823, 2006). Briefly, cells are inoculated into 96-well plates at the optimal plating density. After 24 h, one of the two plates for Hep3B cell line is processed to determine a time zero cell viability (Tz) by MTS assay (Promega). Compounds are added over a 2-fold serial dilution to provide a total five drug concentrations plus DMSO control. Plates are incubated for a further 2 days, then measured cell viability by MTS assay [control growth (C) and test growth in the presence of drug at the five concentration levels (Ti)]. The LC50 is calculated from [(Ti−Tz)/Tz]×100=−50, which is the drug concentration resulting in a 50% reduction at the end of the drug treatment as compared to that at the beginning.
(§2) The compounds prepared in Tables 1-10 were tested in three in vitro assays, and the results are shown in Tables 1-10 for Hep3B and Table 11 for SW480 and NCI-H460 shown below. Herein, Hep3B refers to hepatocellular carcinoma cell line, SW480 refers to colon adenocarcinoma cell line, and NCI-H460 refers to human lung cancer cell line.
(§3) Shown in Tables 11 are in vitro activities of exemplary compounds of formula (I).

[3] = system: SW480 (colon adenocarcinoma cell line); assay: In vitro MTS cell viability assay (NCI-60 methodology), SW480; conditions: Homo sapiens, SW480 cells, read-out: SW480 LC50
Experimental: as §1, §2, §3

Row | Compound | LC50 ([1]; Table 5, MTS) | CC50 [2] | CC50 [3] | LC50 ([1]; Table 6, MTS) | LC50 ([1]; Table 9, MTS) | LC50 ([1]; Table 10, MTS)
1 | O=C(Nc1nc(-c2ccc(OCC(F)(F)C(F)F)nc2)nc2c1cnn2-c1ccccc1)c1ccc([N+](=O)[O-])s1 [Compound 5-56, 5-nitro-N-(1-phenyl-6-(6-(2,2,3,3-tetrafluoropropoxy)pyridin-3-yl)-1H-pyrazolo[3,4-d]pyrimidin-4-yl)thiophene-2-carboxamide] | 400 nM | 1100 nM | 730 nM |  |  | 
2 | O=C(Nc1nc(-c2ccc(F)cc2F)nc2c1cnn2-c1ccccc1)c1ccc([N+](=O)[O-])s1 [Compound 5-45, N-(6-(2,4-difluorophenyl)-1-phenyl-1H-pyrazolo[3,4-d]pyrimidin-4-yl)-5-nitrothiophene-2-carboxamide] | 440 nM | 2180 nM | 1110 nM |  |  | 
3 | CC(C)(C)c1ccc(-n2ncc3c(NC(=O)c4ccc([N+](=O)[O-])s4)nc(N4CCC(F)(F)C4)nc32)cc1 [Compound 6-66, N-(1-(4-(tert-butyl)phenyl)-6-(3,3-difluoropyrrolidin-1-yl)-1H-pyrazolo[3,4,d]pyrimidin-4-yl)-5-nitrothiophene-2-carboxamide] |  | 410 nM | > 10000 nM | 130 nM |  | 
4 | Cc1ccc(-n2ncc3c(NC(=O)c4ccc([N+](=O)[O-])s4)nc(-c4ccc(F)cc4)nc32)cc1 [Compound 6-4, N-(6-(4-fluorophenyl)-1-(p-tolyl)-1H-pyrazolo[3,4-d]pyrimidin-4-yl)-5-nitrothiophene-2-carboxamide] |  | 680 nM | 1510 nM | 280 nM |  | 
5 | O=C(Nc1nc(-c2cccc(F)c2)nc2c1cnn2-c1ccc(F)cc1)c1ccc([N+](=O)[O-])s1 [Compound 6-114, N-(6-(3-fluorophenyl)-1-(4-fluorophenyl)-1H-pyrazolo[3,4-d]pyrimidin-4-yl)-5-nitrothiophene-2-carboxamide] |  | 350 nM | 840 nM | 200 nM |  | 
6 | CCOCCOCCOc1ccc(-c2nc(NC(=O)c3ccc([N+](=O)[O-])s3)c3cnn(-c4ccc(OC)cc4)c3n2)cn1 [Compound 6-28, N-(6-(6-(2-(2-ethoxyethoxy)ethoxy)pyridin-3-yl)-1-(4-methoxyphenyl)-1H-pyrazolo[3,4-d]pyrimidin-4-yl)-5-nitrothiophene-2-carboxamide] |  | 680 nM | 3440 nM | 190 nM |  | 
7 | CC(C)(C)OC(=O)N1CCC(n2ncc3c(NC(=O)c4ccc([N+](=O)[O-])s4)nc(-c4ccc(Cl)cc4)nc32)CC1 [Compound 9-5, tert-butyl 4-(6-(4-chlorophenyl)-4-(5-nitrothiophene-2-carboxamido)-1H-pyrazolo [3,4-d]pyrimidin-1-yl)piperidine-1-carboxylate] |  | 1300 nM | 2780 nM |  | 450 nM | 
8 | O=C(Nc1nc(-c2ccc(Cl)cc2)nc2c1cnn2-c1ccc(F)cc1)c1ccc([N+](=O)[O-])s1 [Compound 6-118, N-(6-(chlorophenyl)-1-(4-fluorophenyl)-1H-pyrazolo[3,4-d]pyrimidin-4-yl)-5-nitrothiophene-2-carboxamide] |  | 980 nM | 2180 nM | 250 nM |  | 
9 | Cc1ccc(-c2nc(NC(=O)c3ccc([N+](=O)[O-])s3)c3cnn(-c4ccc(F)cc4)c3n2)cn1 [Compound 6-120, N-(1-(4-fluorophenyl)-6-(6-methylpyridin-3-yl)-1H-pyrazolo[3,4-d]pyrimidin-4-yl)-5-nitrothiophene-2-carboxamide] |  | 1340 nM | 510 nM | 250 nM |  | 
10 | COc1ccc(-c2nc(NC(=O)c3ccc([N+](=O)[O-])s3)c3cnn(-c4ccc(F)cc4)c3n2)cn1 [Compound 6-121, N-(1-(4-fluorophenyl)-6-(6-methoxypyridin-3-yl)-1H-pyrazolo[3,4-d]pyrimidin-4-yl)-5-nitrothiophene-2-carboxamide] |  | 480 nM | 630 nM | 70 nM |  | 
11 | COCCOc1ccc(-c2nc(NC(=O)c3ccc([N+](=O)[O-])s3)c3cnn(-c4ccc(F)cc4)c3n2)cn1 [Compound 6-135, N-(1-(4-fluorophenyl)-6-(6-(2-methoxyethoxy)pyridin-3-yl)-1H-pyrazolo[3,4-d]pyrimidin-4-yl)-5-nitrothiophene-2-carboxamide] |  | 560 nM | 690 nM | 220 nM |  | 
12 | O=C(Nc1nc(-c2ccc(Cl)cc2F)nc2c1cnn2-c1ccc(F)cc1)c1ccc([N+](=O)[O-])s1 [Compound 6-128, N-(6-(4-chloro-2-fluorophenyl)-1-(4-fluorophenyl)-1H-pyrazolo[3,4,d]pyrimidin-4-yl)-5-nitrothiophene-2-carboxamide] |  | 310 nM | 570 nM | 70 nM |  | 
13 | COC(=O)c1ccc(-c2nc(NC(=O)c3ccc([N+](=O)[O-])s3)c3cnn(C4CCCCC4)c3n2)cc1 [Compound 10-32, methyl 4-(1-cyclohexyl-4-(5-nitrothiophene-2-carboxamido)-1H-pyrazolo[3,4-d]pyrmidin-6-yl)benzoate] |  | 1720 nM | 1210 nM |  |  | 400 nM
14 | O=C(Nc1nc(-c2ccc(F)nc2)nc2c1cnn2-c1cccc(Cl)c1)c1ccc([N+](=O)[O-])s1 [Compound 6-36, N-(1-(3-chlorophenyl)-6-(6-fluoropyridin-3-yl)-1H-pyrazolo[3,4-d]pyrimidin-4-yl)-5-nitrothiophene-2-carboxamide] |  | 670 nM | 2800 nM | 90 nM |  | 
15 | CC(C)(C)c1ccc(-n2ncc3c(NC(=O)c4ccc([N+](=O)[O-])s4)nc(N4CCC[C@H]4CO)nc32)cc1 [Compound 6-71, (S)—N-(1-(4-(tert-butyl)phenyl)-6-(2-(hydroxymethyl)pyrrolidin-1-yl)-1H-pyrazolo[3,4-d]pyrimidin-4-yl)-5-nitrothiophene-2-carboxamide] |  | 440 nM | 980 nM | 280 nM |  | 
16 | O=C(Nc1nc(-c2ccc(F)nc2)nc2c1cnn2C1CCC(F)(F)CC1)c1ccc([N+](=O)[O-])s1 [Compound 10-55, N-(1-(4,4-difluorocyclohexyl)-6-(6-fluoropyridin-3-yl)-1H-pyrazolo[3,4-d]pyrimidin-4-yl)-5-nitrothiophene-2-carboxamide] |  | 940 nM | 1060 nM |  |  | 710 nM
17 | COc1nc(NC(=O)c2ccc([N+](=O)[O-])s2)c2cnn(-c3ccc(C(C)(C)C)cc3)c2n1 [Compound 6-57, N-(1-(4-(tert-butyl)phenyl)-6-methoxy-1H-pyrazolo[3,4-d]pyrimidin-4-yl)-5-nitrothiophene-2-carboxamide] |  | 2750 nM | 1240 nM | 700 nM |  | 
18 | COc1ccc(-c2nc(NC(=O)c3ccc([N+](=O)[O-])s3)c3cnn(-c4ccccc4)c3n2)cn1 [Compound 5-35, N-(6-(6-methoxypyridin-3-yl)-1-phenyl-1H-pyrazolo[3,4-d]pyrimidin-4-yl)-5-nitrothiophene-2-carboxamide] | 180 nM | 650 nM | 1110 nM |  |  | 
19 | O=C(Nc1nc(-c2ccc(F)nc2)nc2c1cnn2-c1cccc(F)c1)c1ccc([N+](=O)[O-])s1 [Compound 6-90, N-(1-(3-fluorophenyl)-6-(6-fluoropyridin-3-yl)-1H-pyrazolo[3,4-d]pyrimidin-4-yl)-5-nitrothiophene-2-carboxamide] |  | 560 nM | 540 nM | 140 nM |  | 
20 | O=C(Nc1nc(-c2ccc(F)cc2)nc2c1cnn2-c1cccc(F)c1)c1ccc([N+](=O)[O-])s1 [Compound 6-89, N-(1-(3-fluorophenyl)-6-(4-fluorophenyl)-1H-pyrazolo[3,4-d]pyrimidin-4-yl)-5-nitrothiophene-2-carboxamide] |  | 710 nM | 810 nM | 120 nM |  | 
21 | O=C(Nc1nc(-c2ccc(Cl)c(F)c2)nc2c1cnn2-c1ccc(F)cc1)c1ccc([N+](=O)[O-])s1 [Compound 6-127] |  | 450 nM | 1060 nM | 150 nM |  | 
22 | O=C(Nc1nc(-c2ccccc2)nc2c1cnn2-c1ccc(F)cc1)c1ccc([N+](=O)[O-])s1 [Compound 6-110, N-(1-(4-fluorophenyl)-6-phenyl-1H-pyrazolo[3,4-d]pyrimidin-4-yl)-5-nitrothiophene-2-carboxamide] |  | 1410 nM | 1250 nM | 230 nM |  | 
23 | COC(=O)[C@@H]1CCCN1c1nc(NC(=O)c2ccc([N+](=O)[O-])s2)c2cnn(-c3ccc(C(C)(C)C)cc3)c2n1 [Compound 6-69, methyl(1-(4-(tert-butyl)phenyl)4-(5-nitrothiophene-2-carboxamido)-1H-pyrazolo[3,4-d]pyrimidin-6-yl)-L-prolinate] |  | 2760 nM | 890 nM | 440 nM |  | 
